Data as given in ChEMBL document CHEMBL4825691, “Antimicrobial, modulatory, and antibiofilm activity of tt-farnesol on bacterial and fungal strains of importance to human health” (2021).
In brackets after ≈: the same amount, converted by molar mass.

How the values were obtained:
Assay type in all cases: functional
[1] = system: Enterococcus faecalis; assay: Antibacterial activity against Enterococcus faecalis ATCC 6569 assessed as inhibition of bacterial growth incubated for 24 hrs by microdilution assay
[2] = system: Shigella flexneri; assay: Antibacterial activity against Shigella flexneri CCCD S006 assessed as inhibition of bacterial growth incubated for 24 hrs by microdilution assay
[3] = system: Streptococcus agalactiae; assay: Antibacterial activity against Streptococcus agalactiae ATCC 13813 assessed as inhibition of bacterial growth incubated for 24 hrs by microdilution assay
[4] = system: Streptococcus pyogenes; assay: Antibacterial activity against Streptococcus pyogenes ATCC 19615 assessed as inhibition of bacterial growth incubated for 24 hrs by microdilution assay
[5] = system: Salmonella typhimurium; assay: Antibacterial activity against Salmonella enterica subsp. enterica serovar Typhimurium ATCC 14028 assessed as inhibition of bacterial growth incubated for 24 hrs by microdilution assay
[6] = system: Streptococcus sobrinus; assay: Antibacterial activity against Streptococcus sobrinus ATCC 27351 assessed as inhibition of bacterial growth incubated for 24 hrs by microdilution assay
[7] = system: Serratia marcescens; assay: Antibacterial activity against Serratia marcescens ATCC 13880 assessed as inhibition of bacterial growth incubated for 24 hrs by microdilution assay; settings: subsp. marcescens ATCC 13880
[8] = system: Enterococcus durans; assay: Antibacterial activity against Enterococcus durans BIO 0114 assessed as inhibition of bacterial growth incubated for 24 hrs by microdilution assay
[9] = system: Escherichia coli; assay: Antibacterial activity against Escherichia coli ATCC 25922 assessed as inhibition of bacterial growth incubated for 24 hrs by microdilution assay
[10] = system: Enterococcus faecalis; assay: Antibacterial activity against Enterococcus faecalis ATCC 29212 assessed as inhibition of bacterial growth incubated for 24 hrs by microdilution assay
[11] = system: Streptococcus mutans; assay: Antibacterial activity against Streptococcus mutans ATCC 25175 assessed as inhibition of bacterial growth incubated for 24 hrs by microdilution assay
[12] = system: Proteus mirabilis; assay: Antibacterial activity against Proteus mirabilis ATCC 25933 assessed as inhibition of bacterial growth incubated for 24 hrs by microdilution assay
[13] = system: Escherichia coli; assay: Antibacterial activity against Escherichia coli STEC 2C1 assessed as inhibition of bacterial growth incubated for 24 hrs by microdilution assay
[14] = system: Escherichia coli; assay: Antibacterial activity against Escherichia coli EHEC 933 assessed as inhibition of bacterial growth incubated for 24 hrs by microdilution assay
[15] = system: Escherichia coli; assay: Antibacterial activity against Escherichia coli EAEC I 4913 assessed as inhibition of bacterial growth incubated for 24 hrs by microdilution assay
[16] = system: Escherichia coli; assay: Antibacterial activity against Escherichia coli EOL 931 assessed as inhibition of bacterial growth incubated for 24 hrs by microdilution assay
[17] = system: Escherichia coli; assay: Antibacterial activity against Escherichia coli ETEC 2589093 assessed as inhibition of bacterial growth incubated for 24 hrs by microdilution assay
[18] = system: Escherichia coli; assay: Antibacterial activity against Escherichia coli EPEC E234969 assessed as inhibition of bacterial growth incubated for 24 hrs by microdilution assay
[19] = system: Escherichia coli; assay: Antibacterial activity against Escherichia coli EIEC E20851 assessed as inhibition of bacterial growth incubated for 24 hrs by microdilution assay
[20] = system: Stenotrophomonas maltophilia; assay: Antibacterial activity against Stenotrophomonas maltophilia EM 0104assessed as inhibition of bacterial growth incubated for 24 hrs by microdilution assay
[21] = system: Acinetobacter baumannii; assay: Antibacterial activity against Acinetobacter baumannii ATCC 19606 assessed as inhibition of bacterial growth incubated for 24 hrs by microdilution assay; settings: ATCC 19606 = CIP 70.34 = JCM 6841
[22] = system: Staphylococcus epidermidis; assay: Antibacterial activity against Staphylococcus epidermidis ATCC 12228 assessed as inhibition of bacterial growth incubated for 24 hrs by microdilution assay
[23] = system: Staphylococcus aureus; assay: Antibacterial activity against Staphylococcus aureus ATCC 29213 assessed as inhibition of bacterial growth incubated for 24 hrs by microdilution assay
[24] = system: Klebsiella pneumoniae; assay: Antibacterial activity against Klebsiella pneumoniae ATCC 1705 assessed as inhibition of bacterial growth incubated for 24 hrs by microdilution assay
[25] = system: Klebsiella pneumoniae; assay: Antibacterial activity against Klebsiella pneumoniae ATCC 700603 assessed as inhibition of bacterial growth incubated for 24 hrs by microdilution assay

Compound `CC1(C)S[C@@H]2[C@H](NC(=O)[C@H](N)c3ccccc3)C(=O)N2[C@H]1C(=O)O` [AMPICILLIN] has an MIC [1] of 4 µg/mL (≈ 11.4 µM), an MIC [2] of 4 µg/mL (≈ 11.4 µM) and an MIC [3] of 0.25 µg/mL (≈ 0.715 µM). The MIC [4] was 0.0625 µg/mL (≈ 0.179 µM), the MIC [5] was 4 µg/mL (≈ 11.4 µM) and the MIC [6] was 0.125 µg/mL (≈ 0.358 µM). It also gave an MIC [7] of 4 µg/mL (≈ 11.4 µM), an MIC [8] of 4 µg/mL (≈ 11.4 µM) and an MIC [9] of 4 µg/mL (≈ 11.4 µM). The MIC [10] was 4 µg/mL (≈ 11.4 µM) and the MIC [11] was 0.5 µg/mL (≈ 1.43 µM).
With `O=C(O)c1cn(C2CC2)c2cc(N3CCNCC3)c(F)cc2c1=O` [CIPROFLOXACIN] the MIC [12] was 0.25 µg/mL (≈ 0.754 µM).
For `C[C@@H](O)[C@H]1C(=O)N2C(C(=O)O)=C(S[C@@H]3CN[C@H](C(=O)N(C)C)C3)[C@H](C)[C@H]12` [MEROPENEM], the MIC [13] was 0.625 µg/mL (≈ 1.63 µM), the MIC [14] was 0.625 µg/mL (≈ 1.63 µM) and the MIC [15] was 0.625 µg/mL (≈ 1.63 µM). The MIC [16] was 0.625 µg/mL (≈ 1.63 µM), the MIC [17] was 0.625 µg/mL (≈ 1.63 µM) and the MIC [18] was 0.625 µg/mL (≈ 1.63 µM). It also gave an MIC [19] of 0.625 µg/mL (≈ 1.63 µM).
Compound `CN(C)c1ccc(O)c2c1C[C@H]1C[C@H]3[C@H](N(C)C)C(O)=C(C(N)=O)C(=O)[C@@]3(O)C(O)=C1C2=O` [MINOCYCLINE] has an MIC [20] of 2 µg/mL (≈ 4.37 µM) and an MIC [21] of 2 µg/mL (≈ 4.37 µM).
Work on `Cc1onc(-c2ccccc2)c1C(=O)N[C@@H]1C(=O)N2[C@@H]1SC(C)(C)[C@@H]2C(=O)O` [OXACILLIN] yielded an MIC [22] of 0.25 µg/mL (≈ 0.623 µM) and an MIC [23] of 0.25 µg/mL (≈ 0.623 µM).
For COLISTIN, the MIC [24] was 1 µg/mL and the MIC [25] was 1 µg/mL.
